Results from patent US20230277562A1, “USE OF C[…] THE TREATMENT OF SEIZURES ASSOCIATED WITH RARE […] SYNDROMES RELATED TO GENETIC ABNORMALITIES” (GW Research Limited, priority 2020, published 2023).
“Also recorded” adds a separate entry of the source.

Tested on: seizures associated with congenital disorder of glycosylation 1P (tonic and myoclonic seizures)
Assay: Open label, expanded-access program of botanically derived purified CBD: seizure frequency in a patient with congenital disorder of glycosylation 1P
Assay type: in vivo, human
Conditions: for Seizure frequency, Tonic: baseline 448.0; for Seizure frequency, Myoclonic: baseline 700.0
Experimental: The subject was required to be on one or more AEDs at stable doses for a minimum of two weeks prior to baseline and to have stable vagus nerve stimulation (VNS) settings and ketogenic diet ratios for a minimum of four weeks prior to baseline.
Dose was then increased weekly by 5 mg/kg/day to a goal of 25 mg/kg/day.
A maximum dose of 50 mg/kg/day could be utilised for the patient if they were tolerating the medication but had not achieved seizure control; the patient had further weekly titration by 5 mg/kg/day.
Modifications were made to concomitant AEDs as per clinical indication.
Seizure frequency, intensity, and duration were recorded by caregivers in a diary during a baseline period of at least 28 days. Changes in seizure frequency relative to baseline were calculated after at least 2 weeks and at defined timepoints of treatment.
Patients may be defined as responders if they had more than 50% reduction in seizure frequency compared to baseline. The percent change in seizure frequency was calculated as follows: […]
The percent change of seizure frequency may be calculated for any time interval where seizure number has been recorded. For the purpose of this example the percent change of seizure frequency for the end of the treatment period was calculated as follows: […]

[1] = Patient 1, 2 weeks, dose CBD 9.1 mg/kg/day
[2] = Patient 1, 4 weeks, dose CBD 18.2 mg/kg/day
[3] = Patient 1, 8 weeks, dose CBD 26.3 mg/kg/day
[4] = Patient 1, 12 weeks, dose CBD 19.0 mg/kg/day
[5] = Patient 1, 16 weeks, dose CBD 13.3 mg/kg/day
[6] = Patient 1, treated for 132 weeks, relative to baseline

In the case of `C=C(C)[C@@H]1CCC(C)=C[C@H]1c1c(O)cc(CCCCC)cc1O` [CBD, cannabidiol], the “Seizure frequency, Tonic” value [1] is reported as 328.0, the “Seizure frequency, Myoclonic” value [1] is reported as 384.0 and the “Seizure frequency, Tonic” value [2] is reported as 231.2. The “Seizure frequency, Myoclonic” value [2] was 424.8, the “Seizure frequency, Tonic” value [3] was 52.0 and the “Seizure frequency, Myoclonic” value [3] was 608.0. The “Seizure frequency, Tonic” value [4] was 22.8, the “Seizure frequency, Myoclonic” value [4] was 986.0 and the “Seizure frequency, Tonic” value [5] was 20.0. The “Seizure frequency, Myoclonic” value [5] was 1251.2, the “reduction in myoclonic seizures over the treatment period” value [6] was 72.1% and the “reduction in tonic seizures over the treatment period” value [6] was 57.2%. For the same compound, the “effect on frequency/number of tonic and myoclonic seizures (in words)” value (patient with congenital disorder of glycosylation 1P) was “effective in reducing the frequency of tonic and myoclonic seizures; also recorded: significantly reduce the number of seizures; also recorded: significant reduction in tonic and myoclonic seizures”.
